# Reference: PubChem BioAssay (NCI)
#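 Assay format: 96-well plates, 48-hour exposure. TGI denotes the concentration required for complete inhibition of growth.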
# Tests used:
# Experiment in all cases: NCI tumour cell line growth inhibition, 48 h
# [1] = tested on: HOP-18 NSCLC
# [2] = tested on: NCI-H460 lung
# [3] = tested on: SNB-78 CNS
# [4] = tested on: XF 498 CNS
# [5] = tested on: MCF7 breast
# [6] = tested on: MDA-MB-231 breast
# [7] = tested on: 786-0 renal
# [8] = tested on: M19-MEL melanoma
# [9] = tested on: P388 leukemia
# [10] = tested on: P388/ADR leukemia
# [11] = tested on: SN12K1 renal
Compound,TGI [1] [µM],TGI [2] [µM],TGI [3] [µM],TGI [4] [µM],TGI [5] [µM],TGI [6] [µM],TGI [7] [µM],TGI [8] [µM],TGI [9] [µM],TGI [10] [µM],TGI [11] [µM]
CCCn1cc2c(=O)[nH]c(SC)nc2n1,> 100,> 100,> 100,98.1,,,,,,,
Cc1cn(C2CC(n3cc(Cn4ccc(=O)[nH]c4=O)nn3)C(CO)O2)c(=O)[nH]c1=O (stereo not drawn),,,,,> 100,> 100,,,,,
CN(C)Cc1cc(Cl)c(O)c(CN(C)C)c1,,> 100,,,> 100,> 100,> 100,,,,
Cc1ncn(-c2ccccc2O)c1C,,,,,> 100,> 100,> 100,,,,
C=C(/C=C/C=C(\C)CCC=C(C)C)[C@@H]1CC[C@]2([C@H](CCCO)/C(=C(/C)C=O)CC[C@]2(C)O)[C@@H]1O,60.4,26.5,33.5,32.8,,,,,,,
O=C1c2ccccc2N(O)C1(c1ccccc1)C1CCCC=C1N1CCOCC1 (stereo not drawn),,> 100,> 100,,,,,> 100,,,
CC(C)(C)c1ccc2c(c1)OP1(Oc3c(Cl)cc(Cl)c4cccnc34)(O2)Oc2ccc(C(C)(C)C)cc2O1,32.4,16.2,> 86.8,26.7,17.3,,,,2.61,9.93,19.6
